According to ChEMBL document CHEMBL4483862, “Open-source discovery of chemical leads for next-generation chemoprotective antimalarials” (2018):

System: Plasmodium berghei
Assay: Luciferase/luciferin-expressing antifolate-resistant parasites were used to infect a culture of HepG2 cells that were pre-incubated with compounds. Infected hepatocytes emit light due to the luciferase reaction. Assay results are presented as the percent inhibition of light emission compared to control. […]
Format: functional
Conditions: sporozoite; for IC90: read-out: LUCIFERASE INFECTION ASSAY - IC90

| SMILES | IC90 [µM] | other results |
| --- | --- | --- |
| NS(=O)(=O)c1ccc(CCNCC(=O)N2CCC(Cc3ccccc3)CC2)cc1 | > 10 | IC50 (HEPG2TOX_HILL_SLOPE 10, HEPG2TOX_R_SQUARED 0.966, PBLUC_HILL_SLOPE 4.42, PBLUC_R_SQUARED 0.274, read-out: LUCIFERASE INFECTION ASSAY - IC50): 7.8 µM |
| Cn1c(NCc2ccccc2F)nc2cnc(-c3ccc4c(c3)OCO4)cc21 | 5.21 | IC50 (HEPG2TOX_HILL_SLOPE 10, HEPG2TOX_R_SQUARED 0.935, PBLUC_HILL_SLOPE 10.5, PBLUC_R_SQUARED 0.0559, read-out: LUCIFERASE INFECTION ASSAY - IC50): 4.23 µM |
| CCOc1ccc(-c2nc(CSc3nnc(-c4ccccc4OC)n3CC)cs2)cc1 | > 10 | IC50 (HEPG2TOX_HILL_SLOPE 10.1, HEPG2TOX_R_SQUARED 0.28, PBLUC_HILL_SLOPE 16.2, PBLUC_R_SQUARED 0.242, read-out: LUCIFERASE INFECTION ASSAY - IC50): 9.09 µM |
| CC1CCN(C(=O)COc2ccc(C(C)C)cc2Br)CC1 | 8.51 | IC50 (HEPG2TOX_HILL_SLOPE 9.85, HEPG2TOX_R_SQUARED 0.75, PBLUC_HILL_SLOPE 15.1, PBLUC_R_SQUARED 0.202, read-out: LUCIFERASE INFECTION ASSAY - IC50): 7.36 µM |
| CCn1ccnc1C(=O)Nc1nc(-c2ccc3c(c2)OCCO3)cs1 | 1.92 | IC50 (HEPG2TOX_HILL_SLOPE 10.1, HEPG2TOX_R_SQUARED 0.135, PBLUC_HILL_SLOPE 182, PBLUC_R_SQUARED 0.438, read-out: LUCIFERASE INFECTION ASSAY - IC50): 1.89 µM |
| O=C(Nc1nc2ccccc2[nH]1)c1ccc(Cl)c(S(=O)(=O)N2CCc3ccccc32)c1 | > 10 | IC50 (HEPG2TOX_HILL_SLOPE 9.78, HEPG2TOX_R_SQUARED 0.833, PBLUC_HILL_SLOPE 14, PBLUC_R_SQUARED 0.17, read-out: LUCIFERASE INFECTION ASSAY - IC50): 8.7 µM |
| FC(F)(F)Oc1ccc(Nc2cc3[nH]c(-c4ccccn4)cc3cn2)cc1 | 5.04 | IC50 (HEPG2TOX_HILL_SLOPE 10.1, HEPG2TOX_R_SQUARED 0.985, PBLUC_HILL_SLOPE 7.97, PBLUC_R_SQUARED 0.35, read-out: LUCIFERASE INFECTION ASSAY - IC50): 3.82 µM |
| COc1ccc(N2CCN(c3nc(Nc4cc(C)nn4-c4ccccc4)c(Cl)cc3Cl)CC2)cc1 | > 10 | IC50 (HEPG2TOX_HILL_SLOPE 10.1, 8.63, HEPG2TOX_R_SQUARED 0.279, 0.753, PBLUC_HILL_SLOPE 15.1, PBLUC_R_SQUARED 0.229, read-out: LUCIFERASE INFECTION ASSAY - IC50): 9.89 µM |
| NC(Cc1ccc(F)cc1)c1csc(NC(=O)Nc2ccc(OC(F)(F)F)cc2)n1 (configuration not stated) | 5.69 | IC50 (HEPG2TOX_HILL_SLOPE 9.82, HEPG2TOX_R_SQUARED 0.883, PBLUC_HILL_SLOPE 24.7, PBLUC_R_SQUARED 0.388, read-out: LUCIFERASE INFECTION ASSAY - IC50): 5.2 µM |
| Cc1ccc(-c2nonc2NC(=O)c2sc3ccccc3c2Cl)cc1 | 6.55 | IC50 (HEPG2TOX_HILL_SLOPE 10.3, HEPG2TOX_R_SQUARED 0.121, PBLUC_HILL_SLOPE 5.87, PBLUC_R_SQUARED 0.389, read-out: LUCIFERASE INFECTION ASSAY - IC50): 4.5 µM |
| COc1ccc(CNCC(O)COc2ccc(C(C)(C)C)cc2C)cc1OC (configuration not stated) | 10 | IC50 (HEPG2TOX_HILL_SLOPE 9.88, HEPG2TOX_R_SQUARED 0.866, PBLUC_HILL_SLOPE 15, PBLUC_R_SQUARED 0.0695, read-out: LUCIFERASE INFECTION ASSAY - IC50): 8.63 µM |
| COc1ccc(C(NS(=O)(=O)c2ccc(-n3ncc(Cl)c(Cl)c3=O)cc2)C(C)C)cc1 (configuration not stated) | 2.38 | IC50 (HEPG2TOX_HILL_SLOPE 9.92, HEPG2TOX_R_SQUARED 0.979, PBLUC_HILL_SLOPE 3.67, PBLUC_R_SQUARED 0.728, read-out: LUCIFERASE INFECTION ASSAY - IC50): 1.31 µM |
| COc1ccc(OC)c(Cn2cc(Br)ccc2=O)c1 | > 10 | IC50 (HEPG2TOX_HILL_SLOPE 10.1, HEPG2TOX_R_SQUARED 0.0663, read-out: LUCIFERASE INFECTION ASSAY - IC50): > 10 µM |
| O=C(CCN1CCN(c2ccccc2)CC1)N/N=C/c1cc(Br)ccc1O | > 10 | IC50 (HEPG2TOX_HILL_SLOPE 9.92, HEPG2TOX_R_SQUARED 0.702, PBLUC_HILL_SLOPE 4.41, PBLUC_R_SQUARED 0.46, read-out: LUCIFERASE INFECTION ASSAY - IC50): 6.08 µM |
| O=C(/C=C/c1ccc(Cl)c([N+](=O)[O-])c1)c1ccc(NC2=NCCCS2)cc1 | 9.95 | IC50 (HEPG2TOX_HILL_SLOPE 9.82, HEPG2TOX_R_SQUARED 0.995, PBLUC_HILL_SLOPE 5.88, PBLUC_R_SQUARED 0.401, read-out: LUCIFERASE INFECTION ASSAY - IC50): 6.85 µM |
| COc1ncccc1C(=O)Nc1ccccc1Cl | > 12.6 | IC50 (HEPG2TOX_HILL_SLOPE 9.95, HEPG2TOX_R_SQUARED 0.955, PBLUC_HILL_SLOPE 2.98, PBLUC_R_SQUARED 0.38, read-out: LUCIFERASE INFECTION ASSAY - IC50): 12.2 µM |

| SMILES | IC90 [µM] | other results |
| --- | --- | --- |
| Cn1c(NCc2ccccc2)nc2cnc(-c3ccc4ccccc4c3)cc21 | 9.43 | IC50 (HEPG2TOX_HILL_SLOPE 9.86, HEPG2TOX_R_SQUARED 0.539, PBLUC_HILL_SLOPE 12.2, PBLUC_R_SQUARED 0.511, read-out: LUCIFERASE INFECTION ASSAY - IC50): 7.88 µM |
| C=C(CS(=O)(=O)c1ccccc1)C(=O)Nc1ccc(C(F)(F)F)cc1 | 7.91 | IC50 (HEPG2TOX_HILL_SLOPE 10, HEPG2TOX_R_SQUARED 0.961, PBLUC_HILL_SLOPE 2.89, PBLUC_R_SQUARED 0.554, read-out: LUCIFERASE INFECTION ASSAY - IC50): 3.7 µM |
| CSc1sc(C(=O)NC(=O)Nc2ccccc2Cl)c2c1-c1nocc1CC2 | > 7.86 | IC50 (HEPG2TOX_HILL_SLOPE 9.91, HEPG2TOX_R_SQUARED 0.105, read-out: LUCIFERASE INFECTION ASSAY - IC50): > 7.86 µM |
| O=c1c2ccccc2nc(SCc2cn3cc(Br)ccc3n2)n1-c1ccccc1F | 3.99 | IC50 (HEPG2TOX_HILL_SLOPE 9.92, HEPG2TOX_R_SQUARED 0.174, PBLUC_HILL_SLOPE 13.7, PBLUC_R_SQUARED 0.208, read-out: LUCIFERASE INFECTION ASSAY - IC50): 3.4 µM |
| Cc1nnnn1/C(=C\c1ccccc1)C(=O)N1CCCC1c1nc2ccccc2s1 (configuration not stated) | > 10 | IC50 (HEPG2TOX_HILL_SLOPE 10.1, HEPG2TOX_R_SQUARED 0.585, PBLUC_HILL_SLOPE 18.2, PBLUC_R_SQUARED 0.211, read-out: LUCIFERASE INFECTION ASSAY - IC50): 9.46 µM |
| O=C(Nc1nonc1-c1ccc(F)cc1)c1ccc(Br)cc1 | 3.92 | IC50 (HEPG2TOX_HILL_SLOPE 9.79, HEPG2TOX_R_SQUARED 0.939, PBLUC_HILL_SLOPE 11.2, PBLUC_R_SQUARED 0.415, read-out: LUCIFERASE INFECTION ASSAY - IC50): 3.22 µM |
| COc1cc(CNCCCN(C)C)cc(Cl)c1OCc1ccc(F)cc1 | > 8.66 | IC50 (HEPG2TOX_HILL_SLOPE 10.1, HEPG2TOX_R_SQUARED 0.531, PBLUC_HILL_SLOPE 2.5, PBLUC_R_SQUARED 0.598, read-out: LUCIFERASE INFECTION ASSAY - IC50): 5.14 µM |
| Oc1ccc(Br)cc1/C=C/c1ccc2cccc(O)c2n1 | > 9.64 | IC50 (HEPG2TOX_HILL_SLOPE 9.84, HEPG2TOX_R_SQUARED 0.0138, PBLUC_HILL_SLOPE 10.3, PBLUC_R_SQUARED 0.574, read-out: LUCIFERASE INFECTION ASSAY - IC50): 8.32 µM |
| CN(C)CCCOc1ccc(-c2cn3c(-c4ccc5ncccc5c4)cnc3cn2)cn1 | 7.35 | IC50 (HEPG2TOX_HILL_SLOPE 9.84, HEPG2TOX_R_SQUARED 0.59, PBLUC_HILL_SLOPE 45.1, PBLUC_R_SQUARED 0.189, read-out: LUCIFERASE INFECTION ASSAY - IC50): 7 µM |
| CCOc1ccc(C(C)NC(=O)C(=O)c2c(C)nn(-c3ccccc3)c2C)cc1 (configuration not stated) | 9.94 | IC50 (HEPG2TOX_HILL_SLOPE 9.83, HEPG2TOX_R_SQUARED 0.28, PBLUC_HILL_SLOPE 22.8, PBLUC_R_SQUARED 0.679, read-out: LUCIFERASE INFECTION ASSAY - IC50): 9.03 µM |
| CCCn1c(NC(=O)c2ccc(S(=O)(=O)N3CC(C)OC(C)C3)cc2)nc2ccccc21 (configuration not stated) | 5.08 | IC50 (HEPG2TOX_HILL_SLOPE 9.83, HEPG2TOX_R_SQUARED 0.869, PBLUC_HILL_SLOPE 10.1, PBLUC_R_SQUARED 0.696, read-out: LUCIFERASE INFECTION ASSAY - IC50): 4.09 µM |
| O=C(c1c[nH]c2ccccc12)N1CCN(c2nsc3ccccc23)CC1 | 3.82 | IC50 (HEPG2TOX_HILL_SLOPE 9.85, HEPG2TOX_R_SQUARED 0.824, PBLUC_HILL_SLOPE 13.5, PBLUC_R_SQUARED 0.79, read-out: LUCIFERASE INFECTION ASSAY - IC50): 3.25 µM |
| COC(=O)c1c(NC(=O)c2ccco2)c2cc(NC(C)Cc3ccccc3OC)cnc2n1C (configuration not stated) | > 7.14 | IC50 (HEPG2TOX_HILL_SLOPE 9.88, HEPG2TOX_R_SQUARED 0.405, PBLUC_HILL_SLOPE 3.37, PBLUC_R_SQUARED 0.677, read-out: LUCIFERASE INFECTION ASSAY - IC50): 4.39 µM |
| N#Cc1ccc(C#CCOC(=O)c2ccc(Cl)cc2)cc1 | > 11.2 | IC50 (HEPG2TOX_HILL_SLOPE 9.79, HEPG2TOX_R_SQUARED 0.928, PBLUC_HILL_SLOPE 1.7, PBLUC_R_SQUARED 0.764, read-out: LUCIFERASE INFECTION ASSAY - IC50): 3.56 µM |
| Cc1ccn2cc(C(=O)Nc3nnc(CC(C)C)s3)nc2c1 | 3.7 | IC50 (HEPG2TOX_HILL_SLOPE 9.95, HEPG2TOX_R_SQUARED 0.674, PBLUC_HILL_SLOPE 11.8, PBLUC_R_SQUARED 0.71, read-out: LUCIFERASE INFECTION ASSAY - IC50): 3.07 µM |
